We go through 61 molecules from ChEMBL document CHEMBL1139505, “Synthesis and structure-activity-relationships of 1H-imidazo[4,5-c]quinolines that induce interferon production” (2005).

Test system in the first assay: not listed separately
The experiment in a line: Minimum effective concentration required to induce interferon (IFN) production in human peripheral blood mononuclear cells (hPBMC). Format: functional. The settings on record: read-out: MEC.
As to `CCCCCCCn1cnc2c(N)nc3ccccc3c21`, the minimal effective concentration came out at 0.5 µg/mL. Same read-out and setting: the value for `CC(C)Cc1nc2c(N)nc3ccccc3c2n1CC(C)(C)O` was 0.01 µg/mL; that for `CC(O)Cn1cnc2c(N)nc3ccccc3c21` (stereo unspecified) was 0.5 µg/mL; that for `Nc1[nH]c2ccccc2c2ncnc1-2` was 0.5 µg/mL. On the same count and under the same terms, the figure for `Nc1nc2ccccc2c2c1ncn2CCO` is 0.5 µg/mL. As for `Cc1nc2c(N)nc3ccccc3c2n1CC(C)C`, the minimal effective concentration was determined as 0.05 µg/mL. Take `CCCCCCn1cnc2c(N)nc3ccccc3c21`: the minimal effective concentration is 0.5 µg/mL.

With `COc1ccc2c(c1)nc(N)c1ncn(CC(C)C)c12`, the minimal effective concentration turned out to be 1 µg/mL.

In the case of `Cn1cnc2c(N)nc3ccccc3c21`, the minimal effective concentration was determined as 0.5 µg/mL. On the same count and under the same terms, the figure for `CCc1nc2c(N)nc3ccccc3c2n1CC(C)(C)O` is 0.05 µg/mL; for `CC(C)n1cnc2c(N)nc3ccccc3c21` it is 0.5 µg/mL. Same read-out and setting: the figure for `CCCn1cnc2c(N)nc3ccccc3c21` is 0.5 µg/mL; for `Nc1nc2ccccc2c2c1ncn2CCc1ccccc1` it is 0.5 µg/mL; for `CCn1cnc2c(N)nc3ccccc3c21` it is 0.5 µg/mL. On to `CCc1nc2c(N)nc3ccccc3c2n1CC(C)C`, for which the minimal effective concentration stood at 0.05 µg/mL.

Take `CC(C)Cn1c(Cc2ccccc2)nc2c(N)nc3ccccc3c21`: the minimal effective concentration amounted to 0.05 µg/mL. Same read-out and setting: the figure for `CCCCc1nc2c(N)nc3ccccc3c2n1-c1ccccc1` is 0.5 µg/mL. Take `Nc1nc2ccccc2c2c1ncn2Cc1ccccc1`: the minimal effective concentration was 0.1 µg/mL.

In the case of `CC(C)Cn1cnc2c(N)nc3cc(O)ccc3c21`, the minimal effective concentration stood at 0.5 µg/mL. On the same count and under the same terms, the figure for `CC(C)Cn1c(COc2ccccc2)nc2c(N)nc3ccccc3c21` is 0.1 µg/mL; for `Cc1ccc2c(c1)nc(N)c1ncn(CC(C)C)c12` it is 0.5 µg/mL. Same read-out and setting: the figure for `CCCCn1cnc2c(N)nc3ccccc3c21` is 0.5 µg/mL. On the same count and under the same terms, the figure for `CCCCCn1cnc2c(N)nc3ccccc3c21` is 0.5 µg/mL; for `CCCc1nc2c(N)nc3ccccc3c2n1CC(C)C` it is 0.05 µg/mL. As to `Nc1nc2ccccc2c2c1ncn2CCCCc1ccccc1`, the minimal effective concentration worked out at 0.1 µg/mL. The same measure, in the same setting: the figure for `CC(C)Cn1cnc2c(N)nc3c(O)cccc3c21` is 1 µg/mL; for `CCCCCCc1nc2c(N)nc3ccccc3c2n1CC(C)C` it is 0.5 µg/mL; for `CC(C)Cn1c(CCc2ccccc2)nc2c(N)nc3ccccc3c21` it is 1 µg/mL. Turning to `CCCCc1nc2c(N)nc3ccccc3c2n1CC(C)C`, the minimal effective concentration came to 0.01 µg/mL.

For `Cc1nc2c(N)nc3ccccc3c2n1CC(C)(C)O`, the minimal effective concentration is 0.05 µg/mL. Same read-out and setting: the figure for `CCCCCCCc1nc2c(N)nc3ccccc3c2n1CC(C)C` is 1 µg/mL; for `CC(C)Cn1cnc2c(N)nc3ccccc3c21` [IMIQUIMOD] it is 0.5 µg/mL.

As to `CCCCCc1nc2c(N)nc3ccccc3c2n1CC(C)C`, the minimal effective concentration is 0.05 µg/mL. For `CC(C)(O)Cn1cnc2c(N)nc3ccccc3c21`, the minimal effective concentration worked out at 0.5 µg/mL. On the same count and under the same terms, the value for `Nc1nc2ccccc2c2c1ncn2CC(O)CO` (stereo unspecified) was 5 µg/mL.

The species named for the next assay is Homo sapiens. The experiment in a line: Minimum effective concentration required to induce interferon (IFN) production in human peripheral blood mononuclear cells (hPBMC); NI = no induction at highest concentration (5.0 ug/mL). Format: functional.
Details: not given
Regarding `CC(C)Cn1c(Oc2ccccc2)nc2c(N)nc3ccccc3c21`, the MEC result was “No induction”. As to `CC(C)Cn1cnc2c(N)nc3ccc(N)cc3c21`, the MEC result is “No induction”. Still for that read-out and setting: the entry for `CC(C)(C)n1cnc2c(N)nc3ccccc3c21` is “No induction”. On the same count and under the same terms, the value for `CC(C)Cn1cnc2c(O)nc3ccccc3c21` was “No induction”; that for `CCCCCCCCn1cnc2c(N)nc3ccccc3c21` was “No induction”; that for `COc1nc2ccccc2c2c1ncn2CC(C)C` was “No induction”. Same read-out and setting: the entry for `CNc1nc2ccccc2c2c1ncn2CC(C)C` is “No induction”; for `CC(C)Cn1c(C(F)(F)F)nc2c(N)nc3ccccc3c21` it is “No induction”. In the case of `CC(C)Cn1cnc2c(N)nc3ccc([N+](=O)[O-])cc3c21`, the MEC result was “No induction”. Still for that read-out and setting: the value for `Cc1cccc2c1nc(N)c1ncn(CC(C)C)c12` was “No induction”; that for `Cc1cccc2nc(N)c3ncn(CC(C)C)c3c12` was “No induction”; that for `COc1ccc2nc(N)c3ncn(CC(C)C)c3c2c1` was “No induction”. `CC(C)Cn1cnc2c(N)nc3ccc(Br)cc3c21`: the MEC entry is “No induction”. For `COc1cccc2c1nc(N)c1ncn(CC(C)C)c12`, the MEC entry is “No induction”. On the same count and under the same terms, the entry for `CC(C)Cn1cnc2c(N)nc3ccc(O)cc3c21` is “No induction”. The same measure, in the same setting: the entry for `CC(C)Cn1cnc2c(N)nc3ccc(Cl)cc3c21` is “No induction”.

In the case of `Nc1nc2ccccc2c2c1ncn2CCCc1ccccc1`, the MEC entry was “No induction”. The same measure, in the same setting: the entry for `CC(C)Cn1cnc2c(NC(=O)c3ccccc3)nc3ccccc3c21` is “No induction”; for `CCCCCCCCCCCCCCCCn1cnc2c(N)nc3ccccc3c21` it is “No induction”; for `CC(C)Cn1cnc2cnc3ccccc3c21` it is “No induction”. As to `CC(C)Cn1c(-c2ccccc2)nc2c(N)nc3ccccc3c21`, the MEC entry is “No induction”. On the same count and under the same terms, the value for `Cc1ccc2nc(N)c3ncn(CC(C)C)c3c2c1` was “No induction”. On to `CC(C)Cn1cnc2c(Cl)nc3ccccc3c21`, for which the MEC result was “No induction”. With `COc1nc2c(N)nc3ccccc3c2n1CC(C)C`, the MEC entry was “No induction”.

For `Nc1nc2ccccc2c2c1ncn2-c1ccccc1`, the MEC entry is “No induction”. Regarding `CSc1nc2ccccc2c2c1ncn2CC(C)C`, the MEC result is “No induction”.
